{"source": "patent US11534428B1", "about": "“Compositions and methods for delaying the incidence of labor” (ObsEva S.A., priority 2018, dated 2022)", "key": {"[1]": {"experiment": "crystal form stability and hygroscopicity", "format": "physicochemical", "from_the_text": "For example, this compound is readily crystallized using a several distinct experimental procedures. Compound 3 assumes a single, reproducible crystal form upon crystallization from a variety of media and under different ambient conditions. […] For instance, impurities associated with atmospheric water are not readily integrated into the crystalline form of compound 3."}, "[2]": {"experiment": "Part A: three-period crossover, single doses of compound (2) and MgSO4 alone and co-administered", "conditions": "for pharmacokinetic interaction between compound (2) and MgSO4: in vivo", "method": "Both studies enrolled 12 healthy, non-pregnant women of reproductive age. […] During the MgSO4 study, women stayed in the clinic from Day −1 to Day 4 of each period. Safety and pharmacokinetics were assessed in accordance with European and United States clinical drug-interaction guidelines. Additional electrocardiogram and neurological examinations were performed assessing safety following MgSO4 administration.\nOne cohort of 12 subjects was admitted to the study unit on day −1, period 1. […] On day 1, subjects were crossed over and received the alternate treatment to that in period 1. Subjects were discharged on day 3, and after washout returned on day −1, period 3. […] Outpatient visits occurred on days 4 and 5 followed by a final visit 7 days (±1 day) later. Venous blood samples used in pharmacokinetic analyses were taken pre-dose then 0.25, 0.5, 0.75, 1, 1.5, 2, 3, 4, 6, 8, 12, 16 and 20 hours post dose on day 1 of each treatment period. Single samples for pharmacokinetic analysis were also drawn on days 2, 3, 4 and 5 of each treatment period.\n(§1) Plasma samples used to determine drug concentration were analyzed by SGS (SGS CEPHAC, France) using a validated methods. Non-compartmental analysis was used to estimate pharmacokinetic parameters and pharmacokinetic modeling was used to access time-dependent pharmacokinetics. […] Other pharmacokinetic parameters were calculated according to standard equations.\nPharmacokinetic interaction assessments were performed on logarithmically transformed AUC0-24, AUC0-∞ and Cmax values using ANOVA models with fixed effects for sequence (Part A only), period, and treatment and a random term for subject within sequence.\n(§2) Differences in tmax were explored by computing the Hodges-Lehmann estimate and the corresponding 90% CI according to Tukey using the approximate method. The Wilcoxon signed rank test was used to test differences in tmax. Unrecorded values were treated as missing."}, "[3]": {"conditions": "in vivo", "method": "(§3) Both studies enrolled 12 healthy, non-pregnant women of reproductive age. […] Safety and pharmacokinetics were assessed in accordance with European and United States clinical drug-interaction guidelines.\n(§4) Once at steady state, compound (2) was sequentially co-administered with each of the other tocolytic drugs. Subjects were admitted to the study unit on day −1. On day 1, each subject received a single intravenous treatment course of atosiban. […] From days 4 to 9, oral doses of compound (2) (1,000 mg) were administered until reaching steady state. […] Two additional samples were taken at 24 and 48 hours post dose to determine betamethasone concentration, due to the longer half-life of this drug. Pharmacokinetic sampling also occurred before compound (2) administration on days 4, 5, 6, 7, 8 and 9, with an additional 0.25 hour post-dose sample taken on day 9 to determine concentration of compound (2) and its metabolite, compound (1). […] Pharmacokinetic samples were obtained at the times stated above on days 10, 11 and 12, and additional betamethasone samples were obtained 24 and 48 hours post-dose. Subjects were discharged on day 14 and returned for a follow-up visit on day 21.\nas §1\n(§5) Pharmacokinetic interaction assessments were performed on logarithmically transformed AUC0-24, AUC0-∞ and Cmax values using ANOVA models with fixed effects for sequence (Part A only), period, and treatment and a random term for subject within sequence. The 90% confidence intervals (90% CI) for the geometric mean ratio of AUC0-24, AUC0-∞ and Cmax were constructed, comparing treatments administered alone versus combination treatments.\nas §2"}, "clinical": {"experiment": "clinical", "conditions": "female, human, in vivo", "method": "as §3, §4, §1, §5, §2"}, "[4]": {"experiment": "Part B: single-sequence crossover, compound (2) at steady state co-administered with atosiban, nifedipine or betamethasone", "conditions": "for Tmax: female, human, in vivo, iv, 60.75 mg, time of peak plasma concentration", "method": "as §3, §4, §1, §5, §2"}, "[5]": {"experiment": "clinical drug-interaction study in healthy women, Parts A and B together (pharmacokinetics, safety, tolerability)", "format": "in vivo, human", "conditions": "plasma, oral compound (2)", "experimental": "Healthy women aged between 18 and 45 years with a body mass index of 18.0 to 30.0 kg/m^2 were included in these investigations. Subjects were screened 55 days before the first drug administration and had to be healthy according to medical history, physical examinations, blood pressure tests, electrocardiogram results and laboratory assessment of blood and urine.\nThis study was performed at Croydon University Hospital, Croydon, UK. The study protocol (EudraCT: 2016-001958-18) was reviewed and approved by a National Health Service (NHS) Research Ethics Committee (South Central-Berkshire B, UK) and the Medicines and Healthcare products Regulatory Authority (MHRA). The study was conducted according to the ethical principles enshrined in UK law, the Declaration of Helsinki and Good Clinical Practice guidelines. All subjects were informed of the purpose of the study and signed voluntary consent forms before being enrolled.\nOther pharmacokinetic parameters were calculated according to standard equations."}, "[6]": {"molecular_target": "T1, Pept1 transporter protein (Homo sapiens, UniProt P46059)", "T1 sequence (P46059 1-708)": "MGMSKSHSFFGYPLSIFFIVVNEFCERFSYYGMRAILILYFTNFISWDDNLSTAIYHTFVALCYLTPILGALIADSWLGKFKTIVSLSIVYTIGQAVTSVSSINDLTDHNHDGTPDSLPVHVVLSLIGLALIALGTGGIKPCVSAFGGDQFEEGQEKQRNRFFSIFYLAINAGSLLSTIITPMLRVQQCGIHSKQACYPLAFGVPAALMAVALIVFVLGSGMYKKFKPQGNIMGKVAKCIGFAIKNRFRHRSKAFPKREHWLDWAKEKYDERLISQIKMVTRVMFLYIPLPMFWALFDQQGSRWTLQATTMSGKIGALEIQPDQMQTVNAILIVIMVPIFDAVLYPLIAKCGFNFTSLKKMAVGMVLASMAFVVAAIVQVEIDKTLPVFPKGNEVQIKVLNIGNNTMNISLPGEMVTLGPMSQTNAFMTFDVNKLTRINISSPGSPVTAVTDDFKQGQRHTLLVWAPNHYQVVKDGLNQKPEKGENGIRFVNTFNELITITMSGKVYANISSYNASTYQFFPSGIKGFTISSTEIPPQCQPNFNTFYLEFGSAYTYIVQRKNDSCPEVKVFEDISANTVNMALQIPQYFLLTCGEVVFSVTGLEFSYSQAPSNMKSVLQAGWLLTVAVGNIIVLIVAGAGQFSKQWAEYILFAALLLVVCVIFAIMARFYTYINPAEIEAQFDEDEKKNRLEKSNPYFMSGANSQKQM", "experiment": "Pept1 transporter dependence of intestinal absorption", "format": "in vitro ADME", "from_the_text": "Compound 2 is de-esterified by ambient esterases in the small intestine and subsequently penetrates the small intestinal epithelium passively. […] Pept1 is known to mediate the absorption of a variety of valinate esters, as described, for example, in Vig et al., Adv. Drug Deliv. Rev. […] Dispos. 41:608-614 (2013). […] Rather, compound 2 and salts thereof are converted in vivo to a form that is readily absorbed in a manner independent of energy and local proton gradient. This beneficial property, coupled with the high aqueous solubility of compound I and salts thereof, fosters a pharmacokinetic profile in which compound 2 and salts thereof readily dissolve in an aqueous environment and are in turn converted into a form capable of transported-independent absorption."}, "[7]": {"conditions": "relative to compound 1; cited from earlier work"}, "[8]": {"conditions": "co-administration with MgSO4 vs compound (2) alone"}, "[9]": {"conditions": "compound (2) with MgSO4 vs alone"}}, "note": "Entries after “also recorded” stand apart in the source; their conditions may differ. Where two headings read alike, the source gives them in different places. Bridge positions count the residues as written; N and C are the ends. Square brackets hold non-standard residues; d marks the D form. Peptide text beside a SMILES is read from it. Orn = NCCC[C@H](N)C(=O)O; Mpa = O=C(O)CCS", "data": [{"smiles": "CC(C)[C@H](N)C(=O)OCC[C@H](NC(=O)[C@@H]1SCCN1S(=O)(=O)c1ccc(-c2ccccc2)cc1)c1ccc(F)cc1.Cl", "note": "[compound (3), (3S)-3-({[(2S)-3-(biphenyl-4-ylsulfonyl)-1,3-thiazolidin-2-yl]carbonyl}-amino)-3-(4-fluorophenyl)propyl L-valinate hydrochloride]", "values": [{"measurement": "hygroscopicity", "setting": "[1]", "value": "low"}, {"measurement": "stability of the crystal form", "setting": "[1]; ambient conditions and elevated relative humidity", "value": "extended stability"}]}, {"smiles": "O=S(=O)([O-])[O-].[Mg+2]", "note": "[MgSO4, magnesium sulfate, reference compound]", "values": [{"measurement": "AUCs of total Mg", "setting": "[2]; after co-administration of compound (2) and MgSO4 vs MgSO4 alone", "value": "slightly lower"}, {"measurement": "pharmacokinetic interaction between compound (2) and MgSO4", "setting": "[2]", "value": "no relevant mutual pharmacokinetic interactions"}, {"measurement": "effect of compound (2) on timing or extent of total Mg exposure", "setting": "[2]; interaction analysis", "value": "no effects"}]}, {"smiles": "O=C(N[C@@H](CCO)c1ccc(F)cc1)[C@@H]1SCCN1S(=O)(=O)c1ccc(-c2ccccc2)cc1", "note": "[compound (1), 3-([1,1′-biphenyl]-4-ylsulfonyl)-N-[1-(4-fluorophenyl)-3-hydroxypropyl]-1,3-thiazolidine-2-carboxamide]", "values": [{"measurement": "change in compound (1) AUC0-24", "setting": "[3]; female, human", "value": "15-24%"}, {"measurement": "change in compound (1) AUC (AUC0-24)", "setting": "[3]; female, human", "value": "−21", "unit": "%"}, {"measurement": "increase in compound (1) AUC", "setting": "[3]; female, human", "value": 15, "unit": "%"}, {"measurement": "increase in compound (1) Cmax", "setting": "[3]; female, human", "value": 35, "unit": "%"}, {"measurement": "increase in compound (1) MRT and t1/2", "setting": "[3]; female, human", "value": "1.7-2 fold"}, {"measurement": "PE, compound (1) AUC", "setting": "[3]; human", "value": 0.786}, {"measurement": "PE, compound (1) Cmax", "setting": "[3]; human", "value": 0.719}, {"measurement": "changes in compound (1) tmax", "setting": "[3]; human", "value": "not significant"}, {"measurement": "compound (1) CL/F", "setting": "[3]; human", "value": "decrease"}, {"measurement": "compound (1) tmax", "setting": "[3]; human", "value": "increase"}, {"measurement": "compound (1) AUC0-24", "setting": "[2]; [8]", "value": "small decrease"}, {"measurement": "compound (1) AUC0-t or AUC0-∞", "setting": "[2]; [8]", "value": "unchanged"}, {"measurement": "compound (1) tmax", "setting": "[2]; [9]", "value": "slightly later; also recorded: no effect"}, {"measurement": "interaction estimates (linear mixed model)", "setting": "[2]; [9]", "value": "~1"}, {"measurement": "compound (1) Cmax", "setting": "[2]; during MgSO4 infusion vs compound (2) alone", "value": "lower"}, {"measurement": "pharmacokinetic interaction between compound (2) and MgSO4", "setting": "[2]", "value": "no interaction of clinical significance"}, {"measurement": "compound (1) mean t1/2 and MRT", "setting": "[2]; with vs without MgSO4 infusion", "value": "nearly identical"}, {"measurement": "Tmax", "setting": "clinical", "value": 3, "unit": "h"}]}, {"smiles": "COC(=O)C1=C(C)NC(C)=C(C(=O)OC)C1c1ccccc1[N+](=O)[O-]", "note": "[nifedipine, reference compound]", "values": [{"measurement": "effect of compound (2) on exposure to the co-administered drug", "setting": "[3]", "value": "marked increase"}]}, {"smiles": "CCOc1ccc(C[C@H]2NC(=O)CCSSC[C@@H](C(=O)N3CCC[C@H]3C(=O)N[C@@H](CCCN)C(=O)NCC(N)=O)NC(=O)[C@H](CC(N)=O)NC(=O)[C@H]([C@@H](C)O)NC(=O)[C@H]([C@@H](C)CC)NC2=O)cc1", "note": "[atosiban] ([Mpa][dY](Et)ITNCP[Orn]G-NH2; disulfide 1-6)", "values": [{"measurement": "Cmax and AUCs, co-administration with compound (2) vs drug alone", "setting": "[4]; descriptive", "value": "slightly higher"}, {"measurement": "Tmax", "setting": "[4]; co-administered with compound (2), compound (2) 1,000 mg per day at steady state", "value": 0.25, "unit": "h"}, {"measurement": "Tmax", "setting": "[4]; drug administered alone", "value": 1.5, "unit": "h"}, {"measurement": "tmax, with compound (2) vs drug alone", "setting": "[4]; paired analysis", "value": "no significant tmax difference"}]}, {"smiles": "C[C@H]1C[C@H]2[C@@H]3CCC4=CC(=O)C=C[C@]4(C)[C@@]3(F)[C@@H](O)C[C@]2(C)[C@@]1(O)C(=O)CO", "note": "[betamethasone, reference compound]", "values": [{"measurement": "Cmax and AUCs, co-administration with compound (2) vs drug alone", "setting": "[3]", "value": "Slightly increased"}, {"measurement": "rise of plasma concentrations", "setting": "[3]", "value": "increased more rapidly"}, {"measurement": "tmax, with compound (2) vs drug alone", "setting": "[3]", "value": "significantly shorter"}]}, {"smiles": "CC(C)[C@H](N)C(=O)OCC[C@H](NC(=O)[C@@H]1SCCN1S(=O)(=O)c1ccc(-c2ccccc2)cc1)c1ccc(F)cc1", "note": "[compound (2), (3S)-3-({[(2S)-3-(biphenyl-4-ylsulfonyl)-1,3-thiazolidin-2-yl]carbonyl}-amino)-3-(4-fluorophenyl)propyl L-valinate]", "values": [{"measurement": "mean AUC0-∞ of compound (2), times lower than that of compound (1)", "setting": "[5]", "value": "771-1163 times"}, {"measurement": "mean peak concentration of compound (2), times lower than that of compound (1)", "setting": "[5]", "value": "133-246 times"}, {"measurement": "substrate for the Pept1 transporter protein", "setting": "[6]", "value": "not substrates"}, {"measurement": "solubility in water and in FeSSIF and FaSSIF media", "setting": "[7]", "value": "improvements"}, {"measurement": "pharmacokinetic interaction between compound (2) and MgSO4", "setting": "[2]", "value": "no relevant mutual pharmacokinetic interactions"}]}]}
